# According to US9006139B2, “Active compound combinations” (Bayer Intellectual Property GmbH, priority 2009, dated 2015):
# Read-outs that look alike come from different tables or passages of the source.
# How the values were obtained:
# Format in all cases: in vivo
# [1] = system: Sphaerotheca fuliginea; assay: Sphaerotheca test (cucumbers)/protective; details: Podosphaera fuliginea, 168 h, Table C, read-out: Efficacy in % found; for pest or weed control at 50 ppm: 50 ppm a.i.; for pest or weed control at 200 ppm: 200 ppm a.i.; for pest or weed control at 100 ppm: 100 ppm a.i.
# How it was run: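 Young cucumber plants sprayed protectively with compound in acetone/dimethylacetamide with emulsifier, water-diluted, at the stated rate. After drying, plants inoculated with Sphaerotheca fuliginea spores and kept at ~23° C and ~70% RH. Efficacy scored at 7 days: 0% = untreated control, 100% = no disease.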
# [2] = system: Alternaria solani; assay: Alternaria test (tomatoes)/protective; details: Alternaria solani, 72 h, Table E, read-out: Efficacy in % found; for pest or weed control at 50 ppm: 50 ppm a.i.
# How it was run: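 Protective test: young tomato plants were sprayed with compound in an acetone/dimethylacetamide emulsifier formulation diluted with water. After drying, plants were inoculated with Alternaria solani spores and kept at ~20 °C and 100% relative humidity. Scored 3 days post-inoculation as % efficacy, where 0% equals untreated control and 100% means no disease.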
# [3] = system: Blumeria graminis fsp. tritici; assay: Blumeria test (wheat)/preventive; details: Table G; 500 ppm a.i.
# Experimental: (§1) Solvent: 49 parts by weight of n,n-dimethylacetamid
# (§2) Emulsifier: 1 part by weight of alkylaryl polyglycol ether
# To produce a suitable preparation of active compound, 1 part by weight of active compound or active compound combination is mixed with the stated amounts of solvent and emulsifier, and the concentrate is diluted with water to the desired concentration. To test for preventive activity, young plants are sprayed with the preparation of active compound or active compound combination at the stated rate of application. After the spray coating has been dried, the plants are dusted with spores of Blumeria graminis fsp. tritici. The plants are placed in the greenhouse at a temperature of approximately 18° C. and a relative atmospheric humidity of approximately 80% to promote the development of mildew pustules. The test is evaluated 7 days after the inoculation. 0% means an efficacy which corresponds to that of the untreated control, while an efficacy of 100% means that no disease is observed.
# [4] = system: Septoria tritici; assay: Septoria tritici-test (wheat)/preventive; details: Table H
# Experimental: as §1, §2
# (§3) To produce a suitable preparation of active compound, 1 part by weight of active compound or active compound combination is mixed with the stated amounts of solvent and emulsifier, and the concentrate is diluted with water to the desired concentration. To test for preventive activity, young plants are sprayed with the preparation of active compound or active compound combination at the stated rate of application. After the spray coating has been dried, the plants are sprayed with a spore suspension of Septoria tritici. The plants remain for 48 hours in an incubation cabinet at approximately 20° C. and a relative atmospheric humidity of approximately 100% and afterwards for 60 hours at approximately 15° C. in a translucent incubation cabinet at a relative atmospheric humidity of approximately 100%. The plants are placed in the greenhouse at a temperature of approximately 15° C. and a relative atmospheric humidity of approximately 80%. The test is evaluated 21 days after the inoculation. 0% means an efficacy which corresponds to that of the untreated control, while an efficacy of 100% means that no disease is observed.
# [5] = system: Pyrenophora teres; assay: Pyrenophora teres-test (barley)/preventive
# Experimental: as §1, §2
# as §3, with “Pyrenophora teres.” for “Septoria tritici.”, “approximately” for “approximately 100% and afterwards for 60 hours at approximately 15° C. in a translucent incubation cabinet at a relative atmospheric humidity of approximately”, “20°” for “15°”, “8” for “21”
# [6] = system: Leptosphaeria nodorum; assay: Leptosphaeria nodorum test (wheat)/preventive; details: Parastagonospora nodorum, 192 h, Table K, read-out: Efficacy in % found
# Experimental: as §1, §2
# as §3, with “Leptosphaeria nodorum.” for “Septoria tritici.”, “approximately” for “approximately 100% and afterwards for 60 hours at approximately 15° C. in a translucent incubation cabinet at a relative atmospheric humidity of approximately”, “22°” for “15°”, “8” for “21”
# [7] = system: Fusarium graminearum; details: Table L; 500 ppm a.i.
structure (smiles),measurement,setting,value
"Cn1c(=O)c2sc3c(=O)n(C)c(=O)c3sc2c1=O [(I-1), 2,6-dimethyl-1H,5H-[1,4]dithiino[2,3-c:5,6-c′]dipyrrole-1,3,5,7(2H,6H)-tetrone]",pest or weed control at 50 ppm,[1]; test 1,0%
same,pest or weed control at 200 ppm,[1]; test 1,30%
same,pest or weed control at 50 ppm,[1]; test 2,38%
same,pest or weed control at 200 ppm,[1]; test 2,65%
same,pest or weed control at 50 ppm,[1]; test 3,20%
same,pest or weed control at 100 ppm,[1]; test 3,30%
same,pest or weed control at 100 ppm,[1]; test 4,19%
same,pest or weed control at 12.5 ppm,"[2]; test 1, 12.5 ppm a.i.",0%
same,pest or weed control at 50 ppm,[2]; test 1,45%
same,pest or weed control at 50 ppm,[2]; test 2,50%
same,Efficacy in % found,[3],75%
same,Efficacy in % found,[4]; 500 ppm a.i.,30%
same,Efficacy in % found,[4]; 1000 ppm a.i.,50%
same,Efficacy in % found,"[5]; Table I1, 500 ppm a.i.",10%
same,Efficacy in % found,"[5]; Table I1, 1000 ppm a.i.",44%
same,Efficacy in % found,"[5]; Table I2, 1000 ppm a.i.",22%
same,pest or weed control at 500 ppm,[6]; 500 ppm a.i.,13%
same,pest or weed control at 1000 ppm,[6]; 1000 ppm a.i.,11%
same,Efficacy in % found,[7],0%
